`Cc1ccc(C(=O)O)cc1` showed a solubility (mole fraction) (in acetic acid, 283.15 K) of 0.043, a solubility (mole fraction) (in acetic acid, 288.15 K) of 0.048 and a solubility (mole fraction) (in acetic acid, 293.15 K) of 0.053. The solubility (mole fraction) (in acetic acid, 298.15 K) was 0.059, the solubility (mole fraction) (in acetic acid, 303.15 K) was 0.064 and the solubility (mole fraction) (in acetic acid, 308.15 K) was 0.07. For the same molecule, the solubility (mole fraction) (in acetic acid, 313.15 K) was 0.077, the solubility (mole fraction) (in acetic acid, 318.15 K) was 0.085 and the solubility (mole fraction) (in acetic acid, 323.15 K) was 0.095. The solubility (mole fraction) (in acetic acid, 328.15 K) was 0.103, the solubility (mole fraction) (in acetic acid, 333.15 K) was 0.113 and the solubility (mole fraction) (in methanol, 283.15 K) was 0.02. The solubility (mole fraction) (in methanol, 288.15 K) was 0.021, the solubility (mole fraction) (in methanol, 293.15 K) was 0.023 and the solubility (mole fraction) (in methanol, 298.15 K) was 0.027. The solubility (mole fraction) (in methanol, 303.15 K) was 0.029, the solubility (mole fraction) (in methanol, 308.15 K) was 0.033 and the solubility (mole fraction) (in methanol, 313.15 K) was 0.038. For the same molecule, the solubility (mole fraction) (in methanol, 318.15 K) was 0.041, the solubility (mole fraction) (in methanol, 323.15 K) was 0.047 and the solubility (mole fraction) (in methanol, 328.15 K) was 0.054. For the same molecule, the solubility (mole fraction) (in methanol, 333.15 K) was 0.061.
